Reference: publication PMC7556346 (Cell chemical biology, 2020)
“Also recorded” adds a separate entry of the source.

Columns and labels:
CTD110.6 antibody = CTD110.6 antibody binding on glycopeptide microarrays
[1] = tested on: Wheat Germ Agglutinin (WGA); assay: Lectin binding on microarray; conditions: control glycans on the GP1 array; TSM binding buffer pH 7.4, 1 hr, room temperature

## CC(=O)N[C@H]1C(O)O[C@H](CO)[C@H](O)[C@@H]1O (stereo partly drawn) [GalNAc]
CTD110.6 antibody; GP2 array printed at 100 μM, 20 mM GalNAc
  effect of free GalNAc on CTD110.6 non-specific binding (hapten): specificity can be restored; also recorded: can be prevented

## CC(=O)N[C@H]1C(O)O[C@H](CO)[C@@H](O)[C@@H]1O (stereo partly drawn) [GlcNAc]
CTD110.6 antibody; GP1 array, 20 mM GlcNAc
  effect of free GlcNAc on CTD110.6 binding (hapten competition): completely abolished

## chitin
[1]
  binding of WGA to control glycans: exhibited lectin binding with WGA
